Source: patent US4505853A, “Enzyme-resistant immunomodulatory peptides” (Ortho Pharmaceutical Corporation, priority 1983, dated 1985)
Where a SMILES comes first, the peptide text is derived from it. Where no end group is shown, it is not given here. [ ]: non-standard residue; d: D form. The star is where a group is joined. Ac5c = NC1(C(=O)O)CCCC1; For = O=C*

Assays:
[1] = test system: Leucine Amino Peptidase (LAP); assay: Leucine Amino Peptidase (LAP) Degradation, amino acid analysis; type: in vitro ADME; conditions: Asp, Pro, Val, Tyr, Arg all 0.00
Source text: Leucine Amino Peptidase (LAP) Degradation Asp, 0.00; Pro, 0.00; Val, 0.00; Tyr, 0.00; Arg.

[2] = test system: thymopoeitin receptor site (membrane glycoprotein of CEM cells); conditions: 2.3×10^-10 M of 125I-TP, 4 g of binding protein, incubation 12 h
[3] = target: T1, porcine LAPcytosol (Leucine Aminopeptidase) (Sus scrofa, UniProt P28839); assay: Stability of peptides against leucine aminopeptidase; type: in vitro ADME; conditions: 1 × 10^-3 M peptide and 3 units/ml porcine LAPcytosol in 50 mM Tris pH 8.5 buffer with 5 mM MgCl2 at 37°
T1 sequence (P28839 1-519): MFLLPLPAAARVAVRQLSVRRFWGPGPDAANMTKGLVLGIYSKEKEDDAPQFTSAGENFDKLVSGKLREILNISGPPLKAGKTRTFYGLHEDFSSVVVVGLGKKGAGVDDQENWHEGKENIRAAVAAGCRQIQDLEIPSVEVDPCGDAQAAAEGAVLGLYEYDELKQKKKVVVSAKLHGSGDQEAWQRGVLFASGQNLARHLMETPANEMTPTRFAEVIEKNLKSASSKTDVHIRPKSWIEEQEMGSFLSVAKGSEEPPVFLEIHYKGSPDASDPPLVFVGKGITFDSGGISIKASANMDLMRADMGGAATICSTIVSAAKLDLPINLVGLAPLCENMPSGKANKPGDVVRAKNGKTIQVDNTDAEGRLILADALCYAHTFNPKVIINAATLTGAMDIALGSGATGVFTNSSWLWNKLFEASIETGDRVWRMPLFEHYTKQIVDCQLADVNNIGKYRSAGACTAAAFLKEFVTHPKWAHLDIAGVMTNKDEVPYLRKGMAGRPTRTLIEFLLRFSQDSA
Method: (§1) It has been determined that the half-life of thymopentin (thymopoeitin fragment 32-36) in serum is approximately one minute.
*1 × 10^-3 M peptide and 3 units/ml porcine LAPcytosol in 50 mM
Tris pH 8.5 buffer with 5 mM MgCl2 at 37°

[4] = Stability of peptides against human serum; type: in vitro ADME; conditions: 1 μg/ml peptide in fresh human serum at 37°
Method: as §1
*1 μg/ml peptide in fresh human serum at 37°

[5] = target: T2, bovine carboxypeptidase A (Bos taurus, UniProt P00730); assay: Stability of peptides against carboxypeptidase A; type: in vitro ADME; conditions: 1 × 10^-3 M peptide and 0.05 units/ml bovine carboxypeptidase in pH 8.5 borate buffer at 37°
T2 sequence (P00730 111-419): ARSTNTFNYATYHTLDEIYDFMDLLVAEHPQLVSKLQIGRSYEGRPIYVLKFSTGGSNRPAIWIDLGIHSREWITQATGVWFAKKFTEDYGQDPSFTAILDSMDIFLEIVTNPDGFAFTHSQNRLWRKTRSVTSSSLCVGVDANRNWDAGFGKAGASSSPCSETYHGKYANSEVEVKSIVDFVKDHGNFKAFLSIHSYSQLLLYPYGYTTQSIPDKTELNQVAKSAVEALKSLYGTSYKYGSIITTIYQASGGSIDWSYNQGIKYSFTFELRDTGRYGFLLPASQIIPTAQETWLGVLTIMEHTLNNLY
Method: as §1
*1 × 10^-3 M peptide and 0.05 units/ml bovine carboxypeptidase
in pH 8.5 borate buffer at 37°

[6] = Enzymatic degradation / half-life in serum; type: in vitro ADME
Source text: as §1

Prothymocytes (Thy-1^-) = assay: Induction assay, Thy-1+ T cells; type: cell-based; conditions: B6-lyb-2.1 congenic mouse spleen cells, 3 hrs with inducer; controls without inducer <5% induced cells
Method: (§2) The compounds of the invention were tested following the induction assay procedure set out in Scheid, et al., J. Exp. Med. 147: 1727-1743 (1978) and also following a receptor assay procedure designed to measure displacement of radiolabelled thymopoeitin from a receptor site by the test peptides. A positive result on the induction assay indicates the ability of the test peptide to mimic the ability of thymopoeitin or splenin to induce precursor cells to immunocompetent T cells or T cells and B cells, respectively. A positive result on the receptor assay indicates the ability of the test peptide to bind to the thymopoeitin receptor site and thus to mimic thymopoeitin activity. The subject peptides are positive in the induction assay, while those in which X is ASP or D-ASP are also positive in the receptor assay.
(§3) The peptides of the invention wherein X is ASP or D-ASP are characterized by their ability to induce the selective differentiation of Thy-1^+ T cells (but not Lyb-2^+ B cells). Thy-1 is a differentiation alloantigen present on T cells but not B cells, whereas Lyb-2 is a differentiation alloantigen present on B cells but not T cells. Studies of these peptides in the induction assay in vitro show them to have the same induction specificity as thymopoietin. […]

pro-Lyb-2 cells = assay: Induction assay, Lyb-2+ B cells; type: cell-based; conditions: B6-lyb-2.1 congenic mouse spleen cells, 3 hrs with inducer; controls without inducer <5% induced cells
Method: as §2, §3

With `CC(=O)N[C@@H](CCCNC(=N)N)C(=O)N1CCC[C@H]1C(=O)N[C@@H](CC(=O)O)C(=O)N[C@H](C(=O)N[C@H](Cc1ccc(O)cc1)C(=O)O)C(C)C` [IX, Nα-Acetyl-Arginyl-Prolyl-Aspartyl-Valyl-D-Tyrosine] (Ac-RPDV[dY]-OH) the “amino acids liberated by Leucine Amino Peptidase (LAP)” value [1] was “no liberated amino acids were detected”.
With `CNC(=O)[C@H](Cc1ccc(O)cc1)NC(=O)[C@@H](NC(=O)[C@H](CC(=O)O)NC(=O)[C@@H]1CCCN1C(=O)[C@H](CCCNC(=N)N)NC(C)=O)C(C)C` [N-α-acetyl-ARG-PRO-ASP-VAL-TYR-NHCH3, Nα-Acetyl-Arginyl-Prolyl-Aspartyl-Valyl-Tyrosine-N-Methylamide] (Ac-RPDVY-NHMe) the “displacement of 125I-TP relative to that caused by thymopoietin self-displacement at equivalent concentrations” value [2] was no less than 50%.
For `CC(C)[C@H](NC(=O)[C@H](CC(=O)O)NC(=O)[C@@H]1CCCN1C(=O)[C@H](CCCNC(=N)N)NC=O)C(=O)N[C@@H](Cc1ccc(O)cc1)C(=O)O` [N-α-formyl-ARG-PRO-ASP-VAL-TYR-OH, N^α -Formyl-Arginyl-Prolyl-Aspartyl-Valyl-Tyrosine] (For-RPDVY-OH), the “displacement of 125I-TP relative to that caused by thymopoietin self-displacement at equivalent concentrations” value [2] was no less than 50%.
With `CC(C)[C@H](NC(=O)[C@H](CC(=O)O)NC(=O)C1(NC(=O)[C@@H](N)CCCNC(=N)N)CCCC1)C(=O)N[C@@H](Cc1ccc(O)cc1)C(=O)O` [NH2 --Arg--Cle--Asp--Val--Tyr--OH, Arginyl-Cycloleucyl-Aspartyl-Valyl-Tyrosine] (H-R[Ac5c]DVY-OH) the “Incubation time required for 50% degradation” value [3] was greater than 1400 min.
With `C[C@H](N)C(=O)NCC(=O)N[C@H]1CSSC[C@@H](C(=O)O)NC(=O)[C@H](CO)NC(=O)[C@H]([C@@H](C)O)NC(=O)[C@H](Cc2ccccc2)NC(=O)[C@H]([C@@H](C)O)NC(=O)[C@H](CCCCN)NC(=O)[C@H](Cc2c[nH]c3ccccc23)NC(=O)[C@H](Cc2ccccc2)NC(=O)[C@H](Cc2ccccc2)NC(=O)[C@H](CC(N)=O)NC(=O)[C@H](CCCCN)NC1=O` [somatostatin, reference compound] the “displacement of 125I-TP / receptor assay result, in words” value [2] was “no detectable displacement”.
With “ACTH: adrenocorticotropic hormone (SYSMEHFRWGKPVGKKRRPVKVYPNGAEDESAEAFPLEF; Corticotropin; UniProt P01189 138-176, looked up) [reference compound]” the “displacement of 125I-TP / receptor assay result, in words” value [2] was “no detectable displacement”.
With “Ac-RPDAY [N-α-acetyl-ARG-PRO-ASP-ALA-TYR-OH, Nα-Acetyl-Arginyl-Prolyl-Aspartyl-Alanyl-Tyrosine]” the “displacement of 125I-TP relative to that caused by thymopoietin self-displacement at equivalent concentrations” value [2] was no less than 50%.
With “Ac-RPDEY [N-α-acetyl-ARG-PRO-ASP-GLU-TYR-OH, N^α -Acetyl-Arginyl-Prolyl-Aspartyl-Glutamyl-Tyrosine]” the “displacement of 125I-TP relative to that caused by thymopoietin self-displacement at equivalent concentrations” value [2] was no less than 50%.
With “Ac-RPDQY [N-α-acetyl-ARG-PRO-ASP-GLN-TYR-OH, Nα-acetyl-Arginyl-Prolyl-Aspartyl-Glutaminyl-Tyrosine]” the “displacement of 125I-TP relative to that caused by thymopoietin self-displacement at equivalent concentrations” value [2] was no less than 50%.
For “Ac-RPDVY [N--Acetyl-Arg--Pro--Asp--Val--Tyr--OH, Nα-Acetyl-Arginyl-Prolyl-Aspartyl-Valyl-Tyrosine]”, the “displacement of 125I-TP relative to that caused by thymopoietin self-displacement at equivalent concentrations” value [2] was no less than 50% and the “Incubation time required for 50% degradation” value [4] was 38 min.
For “Ac-RPDVY-NH2 [N--Acetyl-Arg--Pro--Asp--Val--Tyr--NH2, N^α -acetyl-Arginyl-Prolyl-Aspartyl-Valyl-Tyrosine amide]”, the “Incubation time required for 50% degradation” value [5] was greater than 1500 min, the “Incubation time required for 50% degradation” value [3] was greater than 1400 min and the “displacement of 125I-TP relative to that caused by thymopoietin self-displacement at equivalent concentrations” value [2] was no less than 50%. The “Degradation in human serum, in words” value ([4]; at 30 minutes) was “no degradation”.
For “CRF: corticotropin-releasing factor (SEEPPISLDLTFHLLREVLEMARAEQLAQQAHSNRKLMEII; ends and bridges not checked; UniProt P06850 154-194, looked up) [reference compound]”, the “displacement of 125I-TP / receptor assay result, in words” value [2] was “no detectable displacement”.
In the case of “RKDVY [NH2 --Arg--Lys--Asp--Val--Tyr--OH, reference compound]”, the half-life in serum ([6]; serum) is reported as “approximately one”, the “Incubation time required for 50% degradation” value [5] is reported as 18 min and the “Incubation time required for 50% degradation” value [3] is reported as 15 min. For the same compound, the “Incubation time required for 50% degradation” value [4] was 1.5 min.
In the case of RKEVY [Splenopentin], the “susceptibility to enzymatic degradation” value [6] is reported as “highly susceptible to enzymatic degradation”.
For “RPDVY [NH2 --Arg--Pro--Asp--Val--Tyr--OH]”, the “Incubation time required for 50% degradation” value [3] was 230 min.
With “RPDVY-NH2 [NH2 --Arg--Pro--Asp--Val--Tyr--NH2, Arginyl-Prolyl-Aspartyl-Valyl-Tyrosinamide]” the “Incubation time required for 50% degradation” value [5] was greater than 450 min, the “displacement of 125I-TP relative to that caused by thymopoietin self-displacement at equivalent concentrations” value [2] was no less than 50% and the “Incubation time required for 50% degradation” value [4] was greater than 20 min.
With YRKDV [NH2 -TYR-ARG-LYS-ASP-VAL-OH] the “induction of Thy-1^+ cells (T cells)” value (Prothymocytes (Thy-1^-)) was “no induction” and the “induction of Lyb-2.1^+ cells (B cells)” value (pro-Lyb-2 cells) was “no induction”.
For “growth hormone: comparison peptide in the receptor assay [reference compound]”, the “displacement of 125I-TP / receptor assay result, in words” value [2] was “no detectable displacement”.
In the case of ubiquitin [reference compound], the “displacement of 125I-TP / receptor assay result, in words” value [2] is reported as “no detectable displacement”.
With “β-endorphin: comparison peptide in the receptor assay (YGGFMTSEKSQTPLVTLFKNAIIKNAYKKGE; Beta-endorphin; UniProt P01189 237-267, looked up) [reference compound]” the “displacement of 125I-TP / receptor assay result, in words” value [2] was “no detectable displacement”.
